# From publication PMC10056595, “Odorant-Binding Proteins and Chemosensory Proteins in Spodoptera frugiperda: From Genome-Wide Identification and Developmental Stage-Related Expression Analysis to the Perception of Host Plant Odors, Sex Pheromones, and Insecticides” (International Journal of Molecular Sciences, 2023)
# Like-named read-outs stand apart in the source and are kept apart here.
# Key:
# SfruOBP31 [1] = target: T1, SfruOBP31 (Spodoptera frugiperda, UniProt A0A2H1W9W7); assay: fluorescence competitive binding assay with the probe 1-NPN; details: for Ki: competing ligand 2–20 µM, 2.0 µM 1-NPN, 2.0 µM protein, Ki < 20 µM recognized as binding; for binding of SfruOBP31 to the ligand (in words): competitive binding with 1-NPN, threshold Ki < 20 µM recognized as binding
# T1 sequence (A0A2H1W9W7 entry or part of it): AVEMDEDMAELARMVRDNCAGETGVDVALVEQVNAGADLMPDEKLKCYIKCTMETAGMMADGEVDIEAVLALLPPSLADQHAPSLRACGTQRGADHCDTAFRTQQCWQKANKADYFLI
# Method: To investigate the ligand binding ability of SfruOBP31, we used a fluorescence competitive binding assay using the fluorescent probe N-phenyl-1-naphthylamine (1-NPN). Binding experiments were performed on a microplate reader using a Greiner 96 Black Flat Bottom. Among the ligands, we tested five host volatiles from the host plant Zea mays: decanal (97% purity, Shanghai Acmec Biochemical Co., Ltd., Shanghai, China), linalool (98% purity, Shanghai Acmec Biochemical Co., Ltd.), leaf alcohol (98% purity, Shanghai Acmec Biochemical Co., Ltd.), 1-nonanol (98% purity, Shanghai Acmec Biochemical Co., Ltd.), and cis-3-hexenyl acetate (98% purity, Shanghai Acmec Biochemical Co., Ltd.); four pheromones: (Z)-9-tetradecenyl acetate (93% purity, Shenzhen Regent Biochemical Technology Co., Ltd., Shenzhen, China), (Z)-11-hexadecenyl acetate (98% purity, Shanghai Bidd Medical Technology Co., Ltd., Shanghai, China), (Z)-7-dodecenyl acetate (90% purity, Shanghai Bidd Medical Technology Co., Ltd.), and (Z)-9-dodecenyl acetate (90% purity, Shanghai Bidd Medical Technology Co., Ltd.); and five pesticides: emamectin benzoate (90% purity, Energy Chemical), lufenuron (97.4% purity, Shanghai Yuanye Biotechnology Co., Ltd., Shanghai, China), chlorfenapyr (98% purity, Shanghai Yuanye Biotechnology Co., Ltd.), chlorantraniliprole (95% purity, Shanghai Yuanye Biotechnology Co., Ltd.), and lambda-cyhalothrin (96% purity, Guangdong Liwei Chemical Co., Ltd., Maoming, China). All chemicals used for testing and the fluorescent probe 1-NPN were dissolved in GC purify-grade methanol in a 400 µM solution. The 2.0 µM protein solution (in 10 mM HEPES and 100 mM NaCl buffer, pH 7.5) was titrated with 400 µM 1-NPN to a final concentration of 2–20 µM. The binding constant of the protein to 1-NPN was analyzed by assessing the continuous change of fluorescence value. Compounds of 2–20 µM concentration were added to the mixture of 2.0 µM 1-NPN and 2.0 µM protein or 2.0 µM 1-NPN alone to determine the binding rate of the ligands to the protein and the value of the fluorescence. The final fluorescence value was calculated as the fluorescence value after the addition of 1-NPN and protein with the competing ligand minus the fluorescence value after the addition of 1-NPN with the competing ligand only.
# (§1) The dissociation constants (K1-NPN) of SfruOBP31 were calculated using Graphpad Prism 8 software. The dissociation constant (Ki) of 1-NPN by competing ligands was calculated with the following formula using IC50 value: Ki = [IC50]/(1 + [1-NPN]/K1-NPN). Here, IC50 is the concentration of competing ligands when the fluorescence intensity reaches half of the initial fluorescence intensity of 1-NPN, and [1-NPN] indicates the concentration of 1-NPN [16]. A threshold of Ki < 20 µM was recognized as binding.
# SfruOBP31 [2] = target: T1, SfruOBP31; assay: 1-NPN fluorescence binding (titration of SfruOBP31 with 1-NPN); details: binding curve of SfruOBP31 with 1-NPN
# Method: To investigate the ligand binding ability of SfruOBP31, we used a fluorescence competitive binding assay using the fluorescent probe N-phenyl-1-naphthylamine (1-NPN). Binding experiments were performed on a microplate reader using a Greiner 96 Black Flat Bottom. […] The binding constant of the protein to 1-NPN was analyzed by assessing the continuous change of fluorescence value. Compounds of 2–20 µM concentration were added to the mixture of 2.0 µM 1-NPN and 2.0 µM protein or 2.0 µM 1-NPN alone to determine the binding rate of the ligands to the protein and the value of the fluorescence. The final fluorescence value was calculated as the fluorescence value after the addition of 1-NPN and protein with the competing ligand minus the fluorescence value after the addition of 1-NPN with the competing ligand only.
# as §1, with “A threshold of Ki < 20 µM was recognized as binding.” left out
# [3] = Ki = [IC50]/(1 + [1-NPN]/K1-NPN)
# [4] = Ki = [IC50]/(1 + [1-NPN]/K1-NPN), read-out: Ki
Molecule,Ki (SfruOBP31 [1]; [3]),Ki (SfruOBP31 [1]; [4]),binding of SfruOBP31 to the ligand (in words) (SfruOBP31 [1]),also measured
"CC1(C)[C@H](C(=O)O[C@H](C#N)c2cccc(Oc3ccccc3)c2)[C@@H]1/C=C(\Cl)C(F)(F)F (racemic) [lambda-cyhalothrin, reference compound]",2.78 µM,–,–,–
"c1ccc(Nc2cccc3ccccc23)cc1 [1-NPN, N-phenyl-1-naphthylamine]",–,–,–,"Bmax (1-NPN, printed in Figure 11A) (SfruOBP31 [2]): 702,842"
CCCCCCCCCO [1-nonanol],–,14.2 µM,–,–
CCCC/C=C\CCCCCCCCOC(C)=O [(Z)-9-tetradecenyl acetate],–,5.02 µM,selectively binds,–
CCCC/C=C\CCCCCCCCCCOC(C)=O [(Z)-11-hexadecenyl acetate],–,5.4 µM,selectively binds,–
"CNC(=O)c1cc(Cl)cc(C)c1NC(=O)c1cc(Br)nn1-c1ncccc1Cl [chlorantraniliprole, reference compound]",22.3 µM,–,lack of binding,–
"CCOCn1c(-c2ccc(Cl)cc2)c(C#N)c(Br)c1C(F)(F)F [chlorfenapyr, reference compound]",–,–,–,Ki (SfruOBP31 [1]; read-out: Ki (unit inferred)): 8.1 µM
CC/C=C\CCOC(C)=O [cis-3-hexenyl acetate],–,6.38 µM,–,–
CCCCCCCCCC=O [decanal],–,19.6 µM,–,–
C=CC(C)(O)CCC=C(C)C (centres unmarked) [linalool],4.04 µM,–,–,–
"O=C(NC(=O)c1c(F)cccc1F)Nc1cc(Cl)c(OC(F)(F)C(F)C(F)(F)F)cc1Cl (centres unmarked) [lufenuron, reference compound]",37.6 µM,–,lack of binding,–
emamectin benzoate [reference compound],–,27.6 µM,lack of binding,–
